Measured values: US10647675B2 (priority 2015, dated 2020)
Values after ≈ are worked out from the molar mass of the structure shown.

Assays:
[1] = system: Trichophyton mentagrophytes SM-110; experiment: Antifungal activity evaluation test: minimum inhibitory concentration (MIC), broth dilution by reference to CLSI M38-A2; format: cell-based; settings: SM110, read-out: MIC (T. menta.)
Summary of the method: (§1)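 Broth microdilution after CLSI M38-A2: 2-fold DMSO dilution series in MOPS-buffered RPMI 1640 pH 7.0, inoculum 2×10^3 cells/mL final. Incubated 35° C for 4 days; MIC (μg/mL) is lowest concentration giving visually ≥80% growth inhibition versus growth control.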

[2] = system: Trichophyton rubrum KD-1130; experiment: as above; format: cell-based; settings: KD1130, read-out: MIC (T. rubrum)
Summary of the method: as §1

MIC [1] [µg/mL]	MIC [2] [µg/mL]	Structure (SMILES)
0.2 to 0.78 (≈ 0.609 to 2.38 µM)	0.2 to 0.78 (≈ 0.609 to 2.38 µM)	COc1ccccc1-c1cccnc1Oc1ccc(C(F)F)nc1 [I-72, 2-{[6-(difluoromethyl)pyridin-3-yl]oxy}(2-methoxyphenyl)pyridine]
0.2 to 0.78 (≈ 0.649 to 2.53 µM)	1.56 to 6.25 (≈ 5.06 to 20.3 µM)	COc1ccc(Oc2ncccc2-c2cnccc2OC)cc1 [I-242, 4′-methoxy-2-(4-methoxyphenoxy)-3,3′-bipyridine]
0.2 to 0.78 (≈ 0.576 to 2.25 µM)	0.2 to 0.78 (≈ 0.576 to 2.25 µM)	Cc1nsc(C)c1-c1cccnc1Oc1ccc(C(C)(F)F)nc1 [I-101, 4-(2-{[6-(1,1-difluoroethyl)pyridin-3-yl]oxy}pyridin-3-yl)-3,5′-dimethylisothiazole]
0.2 to 0.78 (≈ 0.604 to 2.35 µM)	0.2 to 0.78 (≈ 0.604 to 2.35 µM)	Cc1noc(C)c1-c1cccnc1Oc1ccc(C(C)(F)F)nc1 [I-102]
≤ 0.1	≤ 0.1	COc1ccccc1-c1cccnc1Oc1cnc(C(F)F)c(C)c1 [I-120]
≤ 0.1	≤ 0.1	COc1ncccc1-c1cccnc1Oc1ccc(CCOC(C)=O)cc1 [I-397, 4-{[(2′-methoxy)-(3,3′-bipyridin)-2-yl]oxy}phenethyl acetate]
0.2 to 0.78 (≈ 0.503 to 1.96 µM)	0.2 to 0.78 (≈ 0.503 to 1.96 µM)	CCOC(=O)CCc1ncc(Oc2ncccc2-c2ccc(F)cc2OC)cn1 [I-195, ethyl 3-(5-{[3-(4-fluoro-2-methoxyphenyl)pyridin-2-yl]oxy}-pyrimidin-2-yl)propionate]
0.2 to 0.78 (≈ 0.547 to 2.13 µM)	0.2 to 0.78 (≈ 0.547 to 2.13 µM)	COc1cc(F)ccc1-c1cccnc1Oc1cnc(N(C)CC#N)nc1 [I-189]
≤ 0.1	≤ 0.1	COc1cc(F)ccc1-c1cccnc1Oc1cnc(N(C)C)nc1 [I-185, 5-{[3-(4-fluoro-2-methoxyphenyl)pyridin-2-yl]oxy}-N,N-dimethylpyrimidin-2-amine]
≤ 0.1	≤ 0.1	COc1c(F)cccc1-c1cccnc1Oc1ccc(C(F)(F)F)nc1 [I-13, 3-(3-fluoro-2-methoxyphenyl)-2-{[6-(trifluoromethyl)pyridin-3-yl]oxy}pyridine]
≤ 0.1	≤ 0.1	COc1ccccc1-c1cccnc1Oc1cnc(OCc2ccccc2)nc1 [I-380, 2-(benzyloxy)-5-{[3-(2-methoxyphenyl)pyridin-2-yl]oxy}pyrimidine]
≤ 0.1	≤ 0.1	CCc1ccc(Oc2ncccc2-c2cnccc2OC)cc1 [I-253, 2-(4-ethylphenoxy)-4′-methoxy-3,3′-bipyridine]
0.2 to 0.78 (≈ 0.565 to 2.2 µM)	1.56 to 6.25 (≈ 4.41 to 17.7 µM)	COc1ccncc1-c1cccnc1Oc1cnc(C2CC2)c(Cl)c1 [I-132, 2-[(5-chloro-6-cyclopropylpyridin-3-yl)oxy]-4′-methoxy-3,3′-bipyridine]
≤ 0.1	≤ 0.1	COc1ncccc1-c1cccnc1Oc1ccc(CCc2cc(C)no2)cc1 [I-408, 5-(4-{[2′-methoxy-(3,3′-bipyridin)-2-yl]oxy}phenethyl)-3-methylisoxazole]
0.2 to 0.78 (≈ 0.544 to 2.12 µM)	0.2 to 0.78 (≈ 0.544 to 2.12 µM)	FC(F)(F)c1ccc(Oc2ncccc2-c2cccc3ccncc23)cn1 [I-43, 8-(2-{[6-(trifluoromethyl)pyridin-3-yl]oxy}pyridin-3-yl)-isoquinoline]
≤ 0.1	≤ 0.1	COc1ccccc1-c1cccnc1Oc1ccc(OC(F)F)nc1 [I-370, 2-{[6-(difluoromethoxy)pyridin-3-yl]oxy}-3-(2-methoxyphenyl)pyridine]
≤ 0.1	≤ 0.1	COc1ccccc1-c1cncnc1Oc1ccc(C(F)(F)F)cc1 [I-321, 5-(2-methoxyphenyl)-4-[4-(trifluoromethyl)phenoxy]pyrimidine]
≤ 0.1	≤ 0.1	COc1ccccc1-c1cccnc1Oc1ccc(OC(F)F)cc1 [I-445]
≤ 0.1	≤ 0.1	COc1ccc(F)cc1-c1cccnc1Oc1ccc(C(C)(F)F)nc1 [I-83, 2-{[6-(1,1-difluoroethyl)pyridin-3-yl]oxy}-3-(5-fluoro-2-methoxyphenyl)pyridine]
≤ 0.1	≤ 0.1	COc1ncccc1-c1cccnc1Oc1ccc(C(F)F)cc1 [I-443]
≤ 0.1	≤ 0.1	Cc1nn(C)c(Cl)c1-c1cccnc1Oc1ccc(C(F)(F)F)cc1 [I-220, 3-(5-chloro-1,3-dimethyl-1H-pyrazol-4-yl)-2-[4-(trifluoromethyl)phenoxy]pyridine]
≤ 0.1	≤ 0.1	FC(F)(F)c1ccc(Oc2ncccc2-c2cccc3cc(Cl)nn23)cn1 [I-375, 2-chloro-7-(2-{[6-(trifluoromethyl)pyridin-3-yl]oxy}pyridin-3-yl)pyrazolo[1,5-a]pyridine]
≤ 0.1	≤ 0.1	COCC(F)(F)c1ccc(Oc2ncccc2-c2ccc(OC)nc2OC)cn1 [I-460]
0.2 to 0.78 (≈ 0.54 to 2.11 µM)	0.2 to 0.78 (≈ 0.54 to 2.11 µM)	O=C1CCc2cccc(-c3cccnc3Oc3ccc(C(F)(F)F)nc3)c21 [I-40, 7-(2-{[6-(trifluoromethyl)pyridin-3-yl]oxy}pyridin-3-yl)-2,3-dihydro-1H-inden-1-one]

MIC [1] [µg/mL]	MIC [2] [µg/mL]	Structure (SMILES)
≤ 0.1	≤ 0.1	CCOCCc1ccc(Oc2ncccc2-c2cccnc2OC)cc1 [I-396, 2-[4-(2-ethoxyethyl)phenoxy]2′-methoxy-3,3′-bipyridine]
≤ 0.1	≤ 0.1	COc1ncc(Cl)cc1-c1cccnc1Oc1ccc(C(F)(F)F)nc1 [I-31, 5-chloro-2-methoxy-2′-{[6-(trifluoromethyl)pyridin-3-yl]oxy}-3,3′-bipyridine]
0.2 to 0.78 (≈ 0.552 to 2.15 µM)	0.2 to 0.78 (≈ 0.552 to 2.15 µM)	CC(F)(F)c1ccc(Oc2ncccc2-c2ccccc2C(F)F)cn1 [I-86, 2-{[6-(1,1-difluoroethyl)pyridin-3-yl]oxy}-3-[2-(difluoromethyl)phenyl]pyridine]
0.2 to 0.78 (≈ 0.485 to 1.89 µM)	0.2 to 0.78 (≈ 0.485 to 1.89 µM)	COCC(F)(F)c1ccc(Oc2ncccc2-c2cc(F)cc3nccnc23)cn1 [I-170, 5-(2-{[6-(1,1-difluoro-2-methoxyethyl)pyridin-3-yl]oxy}pyridin-3-yl)-7-fluoroquinoxaline]
≤ 0.1	≤ 0.1	COc1ccccc1-c1cccnc1Oc1ccc2c(c1)C(=O)CCC2 [I-273, 7-{[3-(2-methoxyphenyl)pyridin-2-yl]oxy}-3,4-dihydronaphthalen-1(2H)-one]
1.56 to 6.25	1.56 to 6.25	COc1ccccc1-c1cccnc1Oc1ccc(COC(C)=O)nc1 [I-69, (5-{[3-(2-methoxyphenyl)-pyridin-2-yl]oxy}pyridin-2-yl)methyl acetate]
0.2 to 0.78 (≈ 0.555 to 2.16 µM)	0.2 to 0.78 (≈ 0.555 to 2.16 µM)	COc1ccccc1-c1ccc(C)nc1Oc1ccc(C(F)(F)F)nc1 [I-67]
≤ 0.1	≤ 0.1	c1cnc(Oc2cnc3c(c2)CCCC3)c(-c2cccc3c2OCC3)c1 [I-137, 3-{[3-(2,3-dihydrobenzyofuran-7-yl)pyridin-2-yl]oxy}-5,6,7,8-tetrahydroquinoline]
1.56 to 6.25 (≈ 5.08 to 20.3 µM)	1.56 to 6.25 (≈ 5.08 to 20.3 µM)	CCc1ccc(Oc2ncccc2-c2cnccc2OC)cn1 [I-127, 2-[(6-ethylpyridin-3-yl)oxy]-4′-methoxy-3,3′-bipyridine]
≤ 0.1	≤ 0.1	C#Cc1ccc(Oc2ncccc2-c2cccnc2OC)cc1 [I-390, 2-(4-ethynylphenoxy)-2′-methoxy-3,3′-bipyridine]
≤ 0.1	≤ 0.1	COCC(F)(F)c1ccc(Oc2ncccc2-c2cccc3c2OCC3)cn1 [I-166, 2-{[6-(1,1-difluoro-2-methoxyethyl)pyridin-3-yl]oxy}-3-(2,3-dihydrobenzofuran-7-yl)pyridine]
≤ 0.1	≤ 0.1	COc1c(Cl)cncc1-c1cccnc1Oc1ccc(C(F)F)cc1 [I-355, 5′-chloro-2-[4-(difluoromethyl)phenoxy]-4′-methoxy-3,3′-bipyridine]
≤ 0.1	≤ 0.1	COc1ncc(C)cc1-c1cccnc1Oc1ccc(C(F)(F)F)nc1 [I-30, 2-methoxy-5-methyl-2′-{[6-(trifluoromethyl)pyridin-3-yl]oxy}-3,3′-bipyridine]
0.2 to 0.78 (≈ 0.571 to 2.23 µM)	0.2 to 0.78 (≈ 0.571 to 2.23 µM)	Cc1nc(C)c(-c2cccnc2Oc2ccc(C(F)(F)F)cc2)s1 [I-342]
0.2 to 0.78 (≈ 0.611 to 2.38 µM)	0.2 to 0.78 (≈ 0.611 to 2.38 µM)	Cc1cncc(-c2cccnc2Oc2ccc(C(C)(F)F)nc2)c1 [I-93, 2-{[6-(1,1-difluoroethyl)pyridin-3-yl]oxy}-5′-methyl-3,3′-bipyridine]
≤ 0.1	≤ 0.1	COc1ncccc1-c1cccnc1Oc1ccc(C(F)(F)F)cc1 [I-202, 2-methoxy-2′-[4-(trifluoromethyl)phenoxy]-3,3′-bipyridine]
0.2 to 0.78 (≈ 0.581 to 2.27 µM)	0.2 to 0.78 (≈ 0.581 to 2.27 µM)	O=Cc1ccccc1-c1cccnc1Oc1ccc(C(F)(F)F)nc1 [I-63, 2-(2-{[6-(trifluoromethyl)pyridin-3-yl]oxy}pyridin-3-yl)-benzaldehyde]
≤ 0.1	≤ 0.1	FC(F)(F)c1ccc(Oc2ncccc2-c2ccccc2Cl)cn1 [I-4, 3-(2-chlorophenyl)-2-{[6-(trifluoromethyl)pyridin-3-yl]oxy}pyridine]
0.2 to 0.78 (≈ 0.508 to 1.98 µM)	0.2 to 0.78 (≈ 0.508 to 1.98 µM)	COCC(F)(F)c1ccc(Oc2ncccc2-c2cccc3cccnc23)cn1 [I-169, 8-(2-{[6-(1,1-difluoro-2-methoxyethyl)pyridin-3-yl]oxy}pyridin-3-yl)quinoline]
≤ 0.1	≤ 0.1	COc1cc(-c2cncnc2Oc2cnc(C(F)F)c(C)c2)c(F)cc1F [I-325, 5-(2,4-difluoro-5-methoxyphenyl)-4-{[6-(difluoromethyl)-5-methylpyridin-3-yl]oxy}pyrimidine]
≤ 0.1	≤ 0.1	CCOC(=O)CN(C)c1ccc(Oc2ncccc2-c2ccccc2OC)cn1 [I-344, ethyl 2-[(5-{[3-(2-methoxyphenyl)pyridin-2-yl]oxy}pyridin-2-yl)(methyl)amino]acetate]
≤ 0.1	≤ 0.1	CCc1ccc(Oc2ncccc2-c2cnccc2Cl)cc1 [I-290, 4′-chloro-2-(4-ethylphenoxy)-3,3′-bipyridine]
≤ 0.1	≤ 0.1	COc1ccccc1-c1cccnc1Oc1cnc2c(c1)CCCCC2 [I-136, 3-{[3-(2-methoxyphenyl)pyridin-2-yl]oxy}-6,7,8,9-tetrahydro-5H-cyclohepta[b]pyridine]
